The results in this text go back to paper PMC3024420 (PLoS ONE, 2011).

Entries after “also recorded” stand apart in the source; their conditions may differ. Where no end group is shown, it is not given here. Bounds are passed on as bounds.

The test system of data set [1] is TZM-bl cells. The class given is cell-based. The conditions noted are these: 24 h of treatment; peptides 35 µg/ml, SP 1%. The procedure:
(§1) All treated cells were lysed using a Bright Glo luciferase system (Promega, Madison, WI, USA), and the ability to prevent HIV-1 infection was measured as a percent reduction in luciferase (relative light units or RLU) compared to the positive viral control (media and virus only). Metabolic activity of the cells was verified by a tetrazolium-based (MTT) assay according to manufacturer's instructions (R&D Systems, Minneapolis, MN, USA), while cytotoxicity was measured using the standard trypan blue dye exclusion assay.

For data set [2] the following is noted: 300 rpm, 37°C, Tricine-SDS gel; for stability in SP containing protease inhibitor (PI) cocktail: SP spiked with broad spectrum PI cocktail, 1–24 h; for time to complete degradation / time to partial degradation: three volumes peptide (1 mg/ml) with one volume whole SP, Coomassie blue. The procedure:
(§2) All incubation sample tubes were pulsed briefly in a microcentrifuge, and immediately stored at −20°C. Samples were electrophoresed on mini-16% Tricine-SDS gels, and stained.

For another data set, the system named is PBMCs. The conditions noted are these: 35 µg/ml with or without 1% SP; n = 3. How it is done: (§3) Cells were then washed, and resuspended in fresh media with sample treatments for 5–7 days. Supernatants were collected on alternate days, and cells in culture were resuspended in sample or media alone. To ensure cell viability, standard trypan blue dye exclusion assays were performed. To quantify viral inhibition, the amount of p24gag was measured in cell supernatants with an ELISA (PerkinElmer, Waltham, MA, USA).
(§4) The antiviral, metabolic, and cytotoxicity experiments were performed at least three times, and each of the assays were performed in triplicate or quadruplicate. For the TZM-bl antiviral assays the infected vehicle-only controls were averaged and set as 100% infection. For the PM1 and PBMC antiviral assays, p24 ELISA quantification established the infected vehicle-only control as 100% infection. […] Individual treatments were analyzed by either one-way ANOVA with Tukey's multiple comparisons post-test or two-tailed unpaired t-test.

Another data set relates to PM1 cells. The note with it: 35 µg/ml with or without 1% SP; n = 3. How it is done: as §3, §4
The test system of data set [3] is TZM-bl cells. Kind of data set: MTT metabolic assay. The conditions noted are these: cells treated for 24 h; peptides 35 µg/ml, SP 1%. Format: cell-based. The procedure: as §1
On the technique in general: Tetrazolium dyes change colour on reduction, which living cells bring about.

The test system of data set [4] is trypsin. Kind of data set: trypsin diluted with sterile PBS. The note with it: 37°C, up to 24 h.
Data set [5] is described as follows: SP spiked with a broad spectrum protease inhibitor (PI). The note with it: human, 37°C, up to 24 h.
Data set [6] concerns the target prostate-specific antigen (PSA) (Homo sapiens, UniProt P07288). How it is done:
as §2
(§5) Digested peptide fragments from protease incubations underwent MALDI-TOF/TOF MS/MS analysis using the Model Ultraflex III mass spectrometer (Bruker Daltonics, Billerica, MA, USA) equipped with LIFT capability. Samples were desalted using C18 ZipTips (Millipore, Bedford, MA, USA) and were analyzed in positive reflector mode. External calibration was performed using a mass standards kit for proteomics analyzer (Applied Biosystems). Samples also underwent analysis via nano-LC ESI-TOF MS/MS using the maXis ESI-Q-TOF (Bruker Daltonics) mass spectrometer online with the Dionex model U3000 nanobore HPLC [28]. Data were analyzed with the Sprot database using the Bruker ProteinScape program version 2.1 and Mascot program version 2.2 with enzyme setting to semiTrypsin.

Another data set concerns the target prostasin (Homo sapiens, UniProt Q16651). The procedure: as §2, §5
Data set [7] has as its system trypsin. The procedure: as §2, §5
A further data set addresses matriptase (Homo sapiens, UniProt Q9Y5Y6). How it is done: as §2, §5
[8] abbreviates: MALDI TOF/TOF MS/MS and nano-LC-MS/MS.

Sequence of prostate-specific antigen (PSA) (P07288 25-261): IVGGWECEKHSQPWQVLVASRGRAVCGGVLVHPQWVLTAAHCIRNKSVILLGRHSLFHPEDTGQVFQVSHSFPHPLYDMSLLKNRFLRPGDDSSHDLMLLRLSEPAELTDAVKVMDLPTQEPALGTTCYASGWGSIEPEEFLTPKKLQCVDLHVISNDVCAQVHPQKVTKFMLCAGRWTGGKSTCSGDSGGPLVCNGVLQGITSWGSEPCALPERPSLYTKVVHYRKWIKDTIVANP
Sequence of matriptase (Q9Y5Y6 whole entry): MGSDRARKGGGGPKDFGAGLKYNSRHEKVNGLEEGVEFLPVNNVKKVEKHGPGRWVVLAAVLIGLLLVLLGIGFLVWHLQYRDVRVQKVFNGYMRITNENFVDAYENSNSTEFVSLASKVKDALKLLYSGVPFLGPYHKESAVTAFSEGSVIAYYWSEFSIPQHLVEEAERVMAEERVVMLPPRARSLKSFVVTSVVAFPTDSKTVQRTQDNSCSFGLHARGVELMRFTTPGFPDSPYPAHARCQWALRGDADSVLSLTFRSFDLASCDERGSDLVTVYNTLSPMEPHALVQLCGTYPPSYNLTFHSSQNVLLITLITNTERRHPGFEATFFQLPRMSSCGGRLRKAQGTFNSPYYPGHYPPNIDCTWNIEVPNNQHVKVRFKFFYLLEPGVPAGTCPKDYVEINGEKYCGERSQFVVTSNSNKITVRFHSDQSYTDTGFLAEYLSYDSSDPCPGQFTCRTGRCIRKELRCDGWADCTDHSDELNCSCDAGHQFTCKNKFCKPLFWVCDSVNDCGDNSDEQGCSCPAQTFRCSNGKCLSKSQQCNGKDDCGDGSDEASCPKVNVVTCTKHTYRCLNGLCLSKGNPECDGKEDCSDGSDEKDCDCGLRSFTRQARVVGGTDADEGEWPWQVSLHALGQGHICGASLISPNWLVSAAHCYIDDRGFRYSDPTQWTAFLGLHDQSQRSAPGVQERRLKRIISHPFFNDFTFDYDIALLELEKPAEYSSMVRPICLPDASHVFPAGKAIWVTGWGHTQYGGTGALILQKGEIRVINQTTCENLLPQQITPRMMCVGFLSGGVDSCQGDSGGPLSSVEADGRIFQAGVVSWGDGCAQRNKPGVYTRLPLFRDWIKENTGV
Sequence of prostasin (Q16651 33-343): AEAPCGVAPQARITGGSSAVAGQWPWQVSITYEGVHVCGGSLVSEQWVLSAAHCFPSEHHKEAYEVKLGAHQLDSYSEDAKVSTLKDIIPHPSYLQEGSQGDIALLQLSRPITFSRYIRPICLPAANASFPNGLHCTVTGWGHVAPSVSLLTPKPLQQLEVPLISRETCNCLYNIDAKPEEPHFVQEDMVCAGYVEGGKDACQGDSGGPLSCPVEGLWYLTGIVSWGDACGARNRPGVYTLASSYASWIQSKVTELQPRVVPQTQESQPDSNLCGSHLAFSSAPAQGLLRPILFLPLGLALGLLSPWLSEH

With GIHKQKEKSRLQGGVLVNE [PAP^266], the “cytotoxicity (trypan blue)” value in the data set on TZM-bl cells [1] is on record as “lack of cytotoxicity”. Further, in data set [2], the “stability in SP containing protease inhibitor (PI) cocktail” value is on record as “preservation”, the “time to complete degradation” value is ≤ 3 h and the “time to partial degradation” value is ≤ 1 h. Further, in the data set on PBMCs, the “cytotoxicity (trypan blue)” value was “No appreciable cytotoxicity”. In addition, the “cytotoxicity (trypan blue)” value in the data set on PM1 cells was “No appreciable cytotoxicity”. Besides, the “metabolic activity of cells (MTT)” value in the data set with TZM-bl cells [3] is “no significant adverse effects to metabolic activity”.
For the sequence GIHKQKEKSRLQGGVLVNEILNHMKRATQIPSYKKLIMY, the fragment found result in the data set with trypsin [4] is on record as “SRLQGGVLVNEILNHMKR; also recorded: ATQIPSYK; also recorded: LQGGVLV; also recorded: RATQIPS; also recorded: ATQIPS; also recorded: LQGGVL; also recorded: LQGGV”. Further, the not cleaved entry in [5] is given as “preservation of the PAP peptides over time”.
Take “GIHKQKEKSRLQGGVLVNEILNHMKRATQIPSYKKLIMY [PAP^286]”: in [2], the “stability in SP containing protease inhibitor (PI) cocktail” value is given as “preservation”, the “time to complete degradation” value was ≤ 3 h and the “time to partial degradation” value is reported as ≤ 1 h. Also, in data set [6] (setting [8]), the “cleavage products by MS after incubation with PSA” value is given as “detectable cleavage products”. The “degradation by PSA” value in [6] (PAP^286 54 µM (250 µg/ml), PSA 1 µM in PBS, 300 rpm, 24 h, 37°C, Tricine-SDS gel, silver stain) is reported as “degradation of the PAP peptide with visible cleavage products”. In addition, in [6] (PAP^286 54 µM, PSA 1.5 µM–[…], 300 rpm, 24 h, 37°C, Tricine-SDS gel, silver stain), the “PSA concentration giving complete degradation” value came to 0.75 µM. Further, the “cleavage products by MS after incubation with prostasin” value on prostasin (setting [8]) is on record as “detectable cleavage products”. Further, at prostasin (PAP^286 54 µM, prostasin 1 µM in PBS, 300 rpm, 24 h, 37°C, Tricine-SDS gel, silver stain), the degradation by prostasin result is listed as “did not effectively degrade”. Moreover, in the data set on trypsin [7] (setting [8]), the “cleavage products by MS after incubation with trypsin” value was “detectable cleavage products”. Also, the “degradation by trypsin (positive control)” value in the data set with trypsin [7] (PAP^286 54 µM, trypsin 1 µM in PBS, 300 rpm, 24 h, 37°C, Tricine-SDS gel, silver stain) is recorded as “completely degraded the peptide, with no cleavage products visualized”. The “cleavage products by MS after incubation with matriptase” value on matriptase (setting [8]) is given as “detectable cleavage products”. The degradation by matriptase entry at matriptase (PAP^286 54 µM, matriptase 1 µM in PBS, 300 rpm, 24 h, 37°C, Tricine-SDS gel, silver stain) is recorded as “degradation of the PAP peptide with visible cleavage products”.
